Data taken from patent US20220268780A1, “METHODS OF PREDICTING ENDOMETRIAL RECEPTIVITY” (HUDSON INSTITUTE OF MEDICAL RESEARCH, priority 2019, published 2022).

Test system: PCX mRNA in Ishikawa cells
Experiment: Transfection of miRNA mimics into Ishikawa cells, PCX mRNA by real-time RT-PCR
Format: cell-based, human
Conditions: mimic 5 μm, 24 h after transfection
Method: To confirm that these two miRNAs can directly down-regulate PCX, mimics of these miRNAs were transfected into a human endometrial epithelial Ishikawa cell line and the impact on the level of PCX expression examined.
Ishikawa cells were cultured overnight in a 12-well plate (3.0×10^5 per well) in complete medium containing MEM (Thermo Fisher Scientific) supplemented with 10% FCS, 1% L-glutamine (Sigma) and 1% antibiotic-antimycotic. The following day, cells were replenished with Opti-MEM for transfection. Control and miRNA mimics (5 μm, all from Thermo Fisher Scientific) were transfected into Ishikawa cells using Lipofectamine RNAiMAX Transfection Reagent (Thermo Fisher Scientific) for 24, 48, 72 h respectively, and PCX mRNA levels were examined by real-time RT-PCR. Combination of the two miRNAs (5 μm each) was also tested.

Substance	repression of PCX mRNA
miR-145: miRNA mimic (Thermo Fisher Scientific); sequence GUCCAGUUUUCCCAGGAAUCCCU, SEQ ID NO: 33 (chemistry not given here)	~34%
miR-199: miRNA mimic (Thermo Fisher Scientific); sequence CCCAGUGUUCAGACUACCUGUUC, SEQ ID NO: 31 (chemistry not given here)	~34%
